Key:
Bcl-2-like protein 1 = Bcl-2-like protein 1 (Homo sapiens, UniProt Q07817); experiment: Displacement of Bad-derived peptide from Bcl-XL (unknown origin) by fluorescence polarization assay
[1] = target: Apoptosis regulator Bcl-2 (Homo sapiens, UniProt P10415); experiment: Displacement of Bax-derived peptide from Bcl-2 (unknown origin) by fluorescence polarization assay
Homo sapiens = species on record: Homo sapiens; experiment: Selectivity factor, ratio of IC50 for Bad-derived peptide from Bcl-XL (unknown origin) to IC50 for displacement of Bax-derived peptide from Bcl-2 (unknown origin)

Apoptosis regulator Bcl-2, sequence (P10415 whole entry): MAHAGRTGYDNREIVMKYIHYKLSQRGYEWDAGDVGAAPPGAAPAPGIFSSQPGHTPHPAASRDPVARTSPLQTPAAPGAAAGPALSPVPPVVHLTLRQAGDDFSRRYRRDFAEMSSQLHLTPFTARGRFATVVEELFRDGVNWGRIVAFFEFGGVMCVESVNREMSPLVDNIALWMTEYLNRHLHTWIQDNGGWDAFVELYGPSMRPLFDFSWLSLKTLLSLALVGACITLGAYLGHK
Bcl-2-like protein 1, sequence (Q07817 whole entry): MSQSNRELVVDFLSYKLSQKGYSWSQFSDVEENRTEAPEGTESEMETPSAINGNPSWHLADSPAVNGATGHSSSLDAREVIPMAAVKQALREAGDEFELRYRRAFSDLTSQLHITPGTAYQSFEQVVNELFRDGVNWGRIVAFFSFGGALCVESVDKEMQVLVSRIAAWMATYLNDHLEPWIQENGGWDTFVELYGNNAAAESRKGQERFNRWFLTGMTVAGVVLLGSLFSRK

Structure (SMILES) | IC50 (Bcl-2-like protein 1) | IC50 [1] | Ratio IC50 (Homo sapiens)
Cn1ccc(S(=O)(=O)NC(=O)c2ccc(N3CCN(CC4=C(c5ccc(Cl)cc5)CCC(C)(C)C4)CC3)cc2)n1 | > 1000 nM | 67.4 nM | > 14.8
CC1(C)CCC(c2ccc(Cl)cc2)=C(CN2CCN(c3ccc(C(=O)NS(C)(=O)=O)cc3)CC2)C1 | > 1000 nM | 495 nM | > 2.02
CC1(C)CCC(c2ccc(Cl)cc2)=C(CN2CCc3ccc(C(=O)NS(=O)(=O)c4ccc(N[C@H](CCN5CCOCC5)CSc5ccccc5)c(S(=O)(=O)C(F)(F)F)c4)cc3CC2)C1 | 25.6 nM | 193 nM | 0.13
CN1CCN(S(=O)(=O)NC(=O)c2ccc(N3CCN(CC4=C(c5ccc(Cl)cc5)CCC(C)(C)C4)CC3)cc2)CC1 | > 1000 nM | 168 nM | > 5.93
CC1(C)CCC(c2ccc(Cl)cc2)=C(CNC2(Cn3cnc4cc(C(=O)NS(=O)(=O)c5ccc(N[C@H](CCN6CCOCC6)CSc6ccccc6)c(S(=O)(=O)C(F)(F)F)c5)ccc43)CC2)C1 | 29.3 nM | 108 nM | 0.27
CC1(C)CCC(c2ccc(Cl)cc2)=C(CN2CCc3nc(C(=O)NS(=O)(=O)c4ccc(N[C@H](CCN5CCOCC5)CSc5ccccc5)c(S(=O)(=O)C(F)(F)F)c4)sc3C2)C1 | 13.2 nM | 38.1 nM | 0.35
CC1(C)CCC(c2ccc(Cl)cc2)=C(CN2CCc3cc(C(=O)NS(=O)(=O)c4ccc(N[C@H](CCN5CCOCC5)CSc5ccccc5)c(S(=O)(=O)C(F)(F)F)c4)ccc3C2)C1 | 14.6 nM | 12.6 nM | 1.15
CC1(C)CCC(c2ccc(Cl)cc2)=C(CNC2(Cn3cnc4ccc(C(=O)NS(=O)(=O)c5ccc(N[C@H](CCN6CCOCC6)CSc6ccccc6)c(S(=O)(=O)C(F)(F)F)c5)cc43)CC2)C1 | > 1000 nM | > 1000 nM | –
CC1(C)CCC(c2ccc(Cl)cc2)=C(CN2CCc3sc(C(=O)NS(=O)(=O)c4ccc(N[C@H](CCN5CCOCC5)CSc5ccccc5)c(S(=O)(=O)C(F)(F)F)c4)cc3C2)C1 | 26.6 nM | 57.9 nM | 0.46

Other lines, results leading:

IC50 (Bcl-2-like protein 1) | IC50 [1] | Ratio IC50 (Homo sapiens) | Structure (SMILES)
55.3 nM | 40.7 nM | 1.36 | CC1(C)CCC(c2ccc(Cl)cc2)=C(CN2CCN(c3ccc(C(=O)NS(=O)(=O)c4ccc(NC5(CN6CCOCC6)CC5)c(S(=O)(=O)C(F)(F)F)c4)cc3)CC2)C1
33.5 nM | 20.7 nM | 1.62 | CC1(C)CCC(c2ccc(Cl)cc2)=C(CN2CCN(c3ccc(C(=O)NS(=O)(=O)c4ccc(N[C@@H](CC5CC5)CN5CCOCC5)c(S(=O)(=O)C(F)(F)F)c4)cc3)CC2)C1
59.3 nM | 68.2 nM | 0.87 | CC1(C)CCC(c2ccc(Cl)cc2)=C(CN2CCN(c3ccc(C(=O)NS(=O)(=O)c4ccc(N[C@@H](CC5CC5)C(=O)N5CCOCC5)c(S(=O)(=O)C(F)(F)F)c4)cc3)CC2)C1
162 nM | 46.6 nM | 3.48 | CC1(C)CCC(c2ccc(Cl)cc2)=C(CN2CCN(c3ccc(C(=O)NS(=O)(=O)c4ccc(N5CC(F)(F)C5)c(S(=O)(=O)C(F)(F)F)c4)cc3)CC2)C1
342 nM | 34.8 nM | 9.83 | CC1(C)CCC(c2ccc(Cl)cc2)=C(CN2CCN(c3ccc(C(=O)NS(=O)(=O)c4ccc(NC5(CN6CC(F)(F)C6)CC5)c(S(=O)(=O)C(F)(F)F)c4)cc3)CC2)C1
105 nM | 17.3 nM | 6.06 | CC1(C)CCC(c2ccc(Cl)cc2)=C(CN2CCN(c3ccc(C(=O)NS(=O)(=O)c4ccc(OCC5(CN6CC(F)(F)C6)COC5)c(S(=O)(=O)C(F)(F)F)c4)cc3)CC2)C1
49.3 nM | 14.5 nM | 3.4 | CC1(C)CCC(c2ccc(Cl)cc2)=C(CN2CCN(c3ccc(C(=O)NS(=O)(=O)c4ccc(OCC5(CN6CCOCC6)COC5)c(S(=O)(=O)C(F)(F)F)c4)cc3)CC2)C1
218 nM | 65.1 nM | 3.34 | CN(C)c1ccc(S(=O)(=O)NC(=O)c2ccc(N3CCN(CC4=C(c5ccc(Cl)cc5)CCC(C)(C)C4)CC3)cc2)cc1S(=O)(=O)C(F)(F)F
116 nM | 46 nM | 2.53 | CN(CCO)c1ccc(S(=O)(=O)NC(=O)c2ccc(N3CCN(CC4=C(c5ccc(Cl)cc5)CCC(C)(C)C4)CC3)cc2)cc1S(=O)(=O)C(F)(F)F

— ChEMBL document CHEMBL4177735, “Design, synthesis and pharmacological evaluation of new acyl sulfonamides as potent and selective Bcl-2 inhibitors” (Bioorg Med Chem, 2018)
